Consider 29 compounds from patent publication US12194050B2, “Thiadiazine derivatives” (RICHTER GEDEON NYRT., priority 2018, dated 2025).

The assay addresses human α7 nAchR (Homo sapiens (Human), UniProt P36544). Nature of the assay: Human α7 nicotinic acetylcholine receptor [Ca2+]i assay (PAM, Ca2+ fluorometry). It is filed as cell-based. The settings on record: Flp-In 293 cells expressing human α7 nAchR and human RIC-3; in presence of saturating agonist (mostly PNU-282987, 1 μM). The method, then:
Biological Activity Human α7 Nicotinic Acetylcholine Receptor [Ca^2+]i Assay
Cells: Flp-In 293 cells stably expressing human α7 nAchR and human RIC-3 (α7 cells, generated in house.)
Materials: 96-well plates coated with PDL (Falcon), culture medium, assay buffer, DMSO, FLIPR Calcium 5 kit (Molecular Devices), probenecid, agonist and PAM test compounds.
Brief Description of the Method (Ca^2+ Fluorometry)
α7 cells stably expressing human α7 nAchR were cultured in the medium detailed above, and were split twice a week. For the fluorometric measurements of cytosolic Ca^2+ ion concentration ([Ca^2+]i) cells were seeded in 96-well microplates at a density of 60000 cells/well and maintained overnight in a tissue culture incubator at 37° C. under an atmosphere of 95% air/5% CO2. The plating medium was identical with the culture medium. 50 μl of the growth medium was aspirated with a cell washer (BioTek Elx405UCVWS). Then 50 μl/well Calcium 5 kit diluted 2-fold in assay buffer was added manually using an 8-channel pipette. After an incubation period (20 minutes, 37° C.) 50 μl/well assay buffer containing vehicle (DMSO, 4% added) or reference α7 PAMs (4×of the final concentration) were added manually and the cells were incubated for an additional 10 minutes at 37° C. Baseline and agonist-evoked [Ca2+]i-changes were monitored with FlexStation II (Molecular Devices, Sunnyvale, Calif.), a plate reader fluorometer with integrated 8-channel fluid addition capability. Fluorescence measurements were carried out at 37° C. The dye was excited at 485 nm, emission was sampled at 525 nm at 1.4-s intervals. Baseline was recorded for 20 seconds followed by agonist stimulation. 50 μl 4× concentrated agonist solution was added to the cells using the pipettor of FlexStation II and fluorescence was monitored for an additional 40 seconds. Final DMSO concentration was 1% for all treatments. To achieve this, a series of DMSO stock solutions were prepared from all test compounds. These stocks were stored under 0° C. and were further diluted in assay buffer to obtain the desired final concentration immediately before the measurement. Agonist and PAM concentration-response studies were conducted in the presence of saturating concentrations of PAMs (mostly PNU-120596, 5 μM) and agonists (mostly PNU-282987, 1 μM), respectively. Results were expressed as ΔF/F values using SoftMax Pro software (Molecular Devices), where F was the resting fluorescence preceding agonist application and ΔF was the increase in fluorescence at a given time (ΔF=maximum fluorescence intensity values after stimulation minus average fluorescence intensity values before stimulation). In all experiments, all treatments were measured in multiple wells in parallel, and the mean ΔF/F values were used for analysis.

human α7 nAchR, sequence (P36544 23-502): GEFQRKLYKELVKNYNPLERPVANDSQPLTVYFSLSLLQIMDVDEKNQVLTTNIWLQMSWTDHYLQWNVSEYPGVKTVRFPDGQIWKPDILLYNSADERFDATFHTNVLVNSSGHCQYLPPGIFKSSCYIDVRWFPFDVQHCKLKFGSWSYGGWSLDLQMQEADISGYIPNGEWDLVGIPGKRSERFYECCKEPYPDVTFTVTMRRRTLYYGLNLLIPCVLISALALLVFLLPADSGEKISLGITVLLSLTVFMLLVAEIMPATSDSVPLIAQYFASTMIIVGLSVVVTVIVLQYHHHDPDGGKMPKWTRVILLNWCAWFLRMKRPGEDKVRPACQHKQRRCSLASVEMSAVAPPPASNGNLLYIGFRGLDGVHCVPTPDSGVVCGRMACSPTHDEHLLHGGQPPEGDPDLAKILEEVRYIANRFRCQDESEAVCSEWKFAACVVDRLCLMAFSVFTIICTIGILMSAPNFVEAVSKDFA

Broadly, the EC50 is the concentration giving half of the maximal effect. On to `COc1ccc(C2=NS(=O)(=O)N(C)C(C(=O)Nc3ccc4c(c3)CCN(C)C4=O)=C2)cc1OC` [Example 2], for which the EC50 is 1.4 µM.

`COc1ccc(C2=NS(=O)(=O)N(C)C(C(=O)Nc3ccc(C(C)=O)cc3)=C2)cc1OC` [Example 3]: the EC50 came to 0.69 µM.

Take `COc1ccc(C2=NS(=O)(=O)N(C)C(C(=O)Nc3cccc(C(C)=O)c3)=C2)cc1OC` [Example 4]: the EC50 was 0.98 µM.

Take `CCc1cccc(NC(=O)C2=CC(c3ccc(OC)c(OC)c3)=NS(=O)(=O)N2C)c1` [Example 5]: the EC50 amounted to 0.21 µM.

Take `CCc1ccc(NC(=O)C2=CC(c3ccc(OC)c(OC)c3)=NS(=O)(=O)N2C)cc1` [Example 6]: the EC50 came to 1.3 µM.

As for `COc1ccc(C2=NS(=O)(=O)N(C)C(C(=O)Nc3ccn4nccc4c3)=C2)cc1OC` [Example 7], the concentration giving a half-maximal response (EC50) is 2 µM.

For the compound `COc1ccc(C2=NS(=O)(=O)N(C)C(C(=O)Nc3cccc(C#N)c3)=C2)cc1OC` [Example 8], the EC50 is 1.8 µM.

For the compound `COc1ccc(C2=NS(=O)(=O)N(C)C(C(=O)Nc3ccc4c(c3)OCO4)=C2)cc1OC` [Example 9], the EC50 came to 1.6 µM.

Turning to `COc1cccc(NC(=O)C2=CC(c3ccc(OC)c(OC)c3)=NS(=O)(=O)N2C)c1` [Example 10], the EC50 came out at 0.67 µM.

`COc1ccc(NC(=O)C2=CC(c3ccc(OC)c(OC)c3)=NS(=O)(=O)N2C)cc1` [Example 11]: the EC50 turned out to be 0.44 µM.

In the case of `COc1ccc(C2=NS(=O)(=O)N(C)C(C(=O)Nc3cccc(C(F)(F)F)c3)=C2)cc1OC` [Example 12], the EC50 came to 0.23 µM.

Take `COc1ccc(C2=NS(=O)(=O)N(C)C(C(=O)Nc3ccc(C)c(Cl)c3)=C2)cc1OC` [Example 13]: the EC50 was found to be 0.34 µM.

Consider `COc1ccc(C2=NS(=O)(=O)N(C)C(C(=O)Nc3ccc(C)cc3)=C2)cc1OC` [Example 14], for which the EC50 came out at 1.4 µM.

For the compound `COc1ccc(C2=NS(=O)(=O)N(C)C(C(=O)Nc3ccnc(C)c3)=C2)cc1OC` [Example 15], the EC50 amounted to 3 µM.

Turning to `COc1ccc(C2=NS(=O)(=O)N(C)C(C(=O)Nc3cccc(C)n3)=C2)cc1OC` [Example 16], the EC50 is 1.4 µM.

As to `COc1ccc(C2=NS(=O)(=O)N(C)C(C(=O)Nc3ccc(C)cn3)=C2)cc1OC` [Example 17], the EC50 stood at 2.8 µM.

In the case of `COc1ccc(C2=NS(=O)(=O)N(C)C(C(=O)Nc3cc(C)ccn3)=C2)cc1OC` [Example 18], the EC50 was 2.9 µM.

As for `COc1ccc(C2=NS(=O)(=O)N(C)C(C(=O)Nc3cccc(F)c3)=C2)cc1OC` [Example 19], the EC50 was 1.6 µM.

As to `COc1ccc(C2=NS(=O)(=O)N(C)C(C(=O)Nc3cccc(Cl)c3)=C2)cc1OC` [Example 20], the EC50 is 0.94 µM.

Consider `Cc1cccc(NC(=O)C2=CC(c3ccc4c(cnn4C)c3)=NS(=O)(=O)N2C)c1` [Example 22], for which the concentration for a half-maximal effect (EC50) turned out to be 0.37 µM.

As for `COc1ccc(C2=NS(=O)(=O)N(C)C(C(=O)Nc3cccc(C(F)(F)F)c3)=C2)cc1C` [Example 23], the concentration giving a half-maximal response (EC50) was 0.4 µM.

Turning to `COc1ccc(C2=NS(=O)(=O)N(C)C(C(=O)Nc3cccc(C)c3)=C2)cc1C` [Example 24], the concentration giving a half-maximal response (EC50) was 0.21 µM.

As to `COc1ccc(C2=NS(=O)(=O)N(C)C(C(=O)Nc3cc(Cl)ccc3OC)=C2)cc1Cl` [Example 25], the EC50 came out at 1.4 µM.

As for `COc1ccc(C2=NS(=O)(=O)N(C)C(C(=O)Nc3cccc(C(F)(F)F)c3)=C2)cc1Cl` [Example 26], the EC50 came out at 0.36 µM.

`COc1ccc(C2=NS(=O)(=O)N(C)C(C(=O)Nc3cccc(C)c3)=C2)cc1Cl` [Example 27]: the EC50 was found to be 0.11 µM.

For `COc1cc(C2=NS(=O)(=O)N(C)C(C(=O)Nc3cccc(C)c3)=C2)ccc1Cl` [Example 28], the EC50 worked out at 1.2 µM.

As to `CCN1C(C(=O)Nc2ccc(C)c(Cl)c2)=CC(c2ccc(OC)c(OC)c2)=NS1(=O)=O` [Example 30], the EC50 turned out to be 0.44 µM.

As for `CCN1C(C(=O)Nc2cccc(C(F)(F)F)c2)=CC(c2ccc(OC)c(OC)c2)=NS1(=O)=O` [Example 31], the EC50 turned out to be 0.44 µM.

`CCN1C(C(=O)Nc2ccc(OC(F)(F)F)cc2)=CC(c2ccc(OC)c(OC)c2)=NS1(=O)=O` [Example 32]: the EC50 is 0.72 µM.
